System: CD34+ enriched cord blood cells
Assay: Ex vivo expansion of CD34+ enriched cord blood cells, 12 days in culture with small molecules, flow cytometry
Conditions: for percentage and total number of Lin-CD34+ and Lin- cells: CD34+ cord blood cells cultured in vitro 12 days, FIGS. 21-23
Experimental: CD34+ enriched cord blood cells were obtained from AllCells. Ten thousand cells were cultured in StemSpan SFEMII containing recombinant human SCF, TPO, IL-3 and FLT3L (all at 100 ng/ml). Cells were cultured with cytokine containing media with the vehicle control (DMSO) or the indicated small molecules. Media was changed every three days. On day twelve, cells were harvested, counted, and analyzed by flow cytometry.
Plots show samples previously gated through live (PI-) and singlet gates. Gating strategy for immunophenotypic hematopoietic stem cells (HSCs) defined as Lin−CD34+CD45RA−CD90+ and Lin−CD34+CD45RA−CD90+CD49f+EPCR+ HSCs is shown. Percentages indicate the frequency of the parent (previous) gate.
Plots show samples previously gated through live (PI-) and singlet gates. Gating strategy for immunophenotypic hematopoietic stem cells (HSCs) as Lin−CD34+CD45RA−CD90+ and Lin−CD34+CD45RA−CD90+CD49f+EPCR+ are shown. Percentages indicate the frequency of cells in the parent population.
Depicted is the total number of live cells after 12 days of culturing 10,000 CD34+ enriched cord blood cells in the indicated conditions.
CD34+ cord blood cells were cultured in vitro in the presence of different combinations of compounds as described herein.

Row | Structure (SMILES) | percentage and total number of Lin-CD34+ and Lin- cells | percentage and total number of Lin-CD45RA-CD90+ HSCs (CD34+ cord blood cells, 12 days culture, FIG. 24, 25) | percentage of Lin-CD45RA-CD90+CD49f+EPCR+ HSCs (CD34+ cord blood cells, 12 days culture, FIG. 26, 27)
1 | C[S+]([O-])c1ccc(-c2nc(-c3ccc(F)cc3)c(-c3ccncc3)[nH]2)cc1 (centres unmarked) [A, A83-01] | increased | – | –
2 | Nc1cccc2c1C(=O)N(C1CCC(=O)NC1=O)C2=O (centres unmarked) [POM, pomalidomide] | increased | increased | increased
3 | CC(C)n1cnc2c(NCCc3ccc(O)cc3)nc(-c3csc4ccccc34)nc21 [SR1, StemRegenin 1] | increased | – | –
